The values below come from patent US12174172B2, “Method for evaluating the efficacy of a composition in reducing the effects of cancer therapeutics on skin” (Johnson & Johnson Consumer Inc., priority 2019, dated 2024).

In one experiment the test system is desmoglein-1 (DSG1). Nature of the experiment: 3D micro-epidermis model (EpiScreen): desmoglein-1 immunostaining. The experiment is classed as cell-based, human. As to the method: (§1) To assess the effects of such therapy molecules on the epidermis, keratinocytes were grown in the presence of kinase inhibitors during 3 days with high calcium concentration to induce keratinocyte differentiation and generate a 3D-stratified differentiated epidermis. Drug impact on the epidermis development was assessed via different keratinocyte markers including: • Ki-67, an universally expressed protein among proliferating cells and absent in the quiescent cells; • Filaggrin, a filament-associated protein that binds to keratin fibers and is a marker of terminal differentiation; • Desmoglein-1, a component of desmosomes and differentiation marker expressed in all epidermal layer above the basal layer; and • Involucrin, an early differentiation marker expressed in the spinous and granular layers and a protein precursor of the epidermal cornified envelope.
(§2) Human epidermal keratinocytes cells (HPEKs) from a juvenile donor (CellnTec, Switzerland) are cultured in flasks in proliferation medium. Keratinocytes are seeded at passage 6 into EpiScreen™ (Abzena, Cambridge, UK) plates containing collagen 1 coated disc micropatterns (CYTOO, Grenoble, France). Four hours later, unattached cells are washed off and a high calcium medium is added to induce keratinocytes differentiation. The day after, keratinocytes are treated with screening compounds, and Trichostatin A is added at 0.3 μM as an internal positive control. After three days of treatment, micro-epidermises are fixed with a formalin solution 10% for 30 minutes, then permeabilized with 0.1% Triton. Several immunostainings are performed: actin (Acti-Stain 555, PHDH1, Cytoskeleton), nuclei (Hoechst, H3570, Invitrogen), and one biomarker of interest per well either anti-involucrin (HPA055211, Sigma), anti-filaggrin (HPA030189, Sigma) or anti-desmoglein-1 (HPA022128, Sigma). Antibodies are added overnight at 4° C. before staining with secondary antibody, anti-rabbit 488 (711-545-152, Jackson) for 2 hours at room temperature.
(§3) Images of each well are acquired with the Operetta HCS platform (Perkin Elmer, Waltham, MA, USA) using a ×10 objective in confocal mode in eight z-planes from 2 μm to 44 μm in steps of 6 μm in each of the 3 channels: actin, nuclei, and one biomarker of interest. The first step of the image analysis consists in detecting micro-epidermis structures on the first z-plane by segmenting the actin staining. Micro-epidermis structures are validated based on several area and roundness min and max criteria. Then, the area of each biomarker staining is measured inside the valid micro-epidermis masks through each z-plane. For all homogeneous biomarker staining, their intensity through the different planes is measured.
(§4) The actin network of each micro-epidermis is analyzed in each z-plane in order to determine the average 3D structure edges. The biomarker intensity is measured in each z-plane for each structure, and then averaged with the other results generated in the same well. Based on the data generated in the two previous steps, an average 3D reconstruction image is generated. It consists of a meshwork that delimits the structure edges, and a color scaled volume that corresponds to the biomarkers distribution and expression.
The effect of 8 oncology molecules, selected from first generation EGFRi and pan-kinase inhibitors which mostly target VEGFR and second and third generation therapies targeting main mutations relating to first generation treatment resistance, were assessed in vitro using a 3D micro-epidermis model. The drug incubation concentrations (3, 10, 30, 100 nM) were selected to reflect the clinically relevant (unbound) drug exposures (Table 2). The drug impact was assessed by analysis of tissue size and keratinocyte proliferation using Ki-67 staining and keratinocyte differentiation using filaggrin, desmoglein-1 and involucrin staining. […]

A further experiment has as its system involucrin (IVL). Nature of the experiment: 3D micro-epidermis model (EpiScreen): involucrin immunostaining. The experiment is classed as cell-based, human. As to the method:
as §1, §2, §3, §4
The effect of 8 oncology molecules, selected from first generation EGFRi and pan-kinase inhibitors which mostly target VEGFR and second and third generation therapies targeting main mutations relating to first generation treatment resistance, were assessed in vitro using a 3D micro-epidermis model. […] The drug impact was assessed by analysis of tissue size and keratinocyte proliferation using Ki-67 staining and keratinocyte differentiation using filaggrin, desmoglein-1 and involucrin staining.
Size of the epidermis and the expression of the protein junction desmoglein-1 (DSG1), involucrin (IVL) and filaggrin (FLG) was assessed by immunostaining and compared to untreated control. […]

The mark [1] stands for this setting: concentration (afatinib 3, 10, 30 nM; pan-kinase inhibitors 100 nM).

“Also recorded” adds a separate entry of the source.

As to `CN(C)C/C=C/C(=O)Nc1cc2c(Nc3ccc(F)c(Cl)c3)ncnc2cc1O[C@H]1CCOC1` [Afatinib], the “DSG 3 nM” value with desmoglein-1 (DSG1) (3 nM, supplementary data) is given as 38%. For the same compound, the “DSG 30 nM” value in the experiment on desmoglein-1 (DSG1) (30 nM, supplementary data) was found to be 87%. Further, the activation at 0.01 µM with desmoglein-1 (DSG1) (Homo sapiens, 72 h, 10 nM, supplementary data, read-out: DSG 10 nM) amounted to 67%. The DSG-1 expression entry with desmoglein-1 (DSG1) (Table 1 summary) is given as “Increased”. For the same compound, the “desmoglein-1 expression” value in the experiment with desmoglein-1 (DSG1) (setting [1]) is “significantly increased; also recorded: increased in a dose-dependent manner”. In addition, the “IVL 30 nM” value with involucrin (IVL) (30 nM, supplementary data) came out at 12%. This compound had an activation at 0.1 µM in the experiment on involucrin (IVL) (Homo sapiens, 72 h, 100 nM, supplementary data, two runs, Tox = toxic) of 16%. Further, the activation at 1 µM in the experiment on involucrin (IVL) (Homo sapiens, 72 h, 1 μM, supplementary data, two runs, Tox = toxic) came to 27%. The IVL expression entry with involucrin (IVL) (Table 1 summary) is on record as “Increased”. Moreover, the “involucrin expression” value in the experiment with involucrin (IVL) (setting [1]) is on record as “significantly increased; also recorded: increased in a dose-dependent manner”.
